{"source": "patent US20140227325A1", "about": "“LIGNIN-DERIVED POROUS CARBON COMPOSITION, METHODS OF PREPARATION, AND USE THEREOF” (UT-BATTELLE, LLC, priority 2013, published 2014)", "key": {"[1]": {"assay": "Drug loading amount by thermogravimetric analysis (TGA)", "format": "physicochemical", "details": "for Loading percent in LMC-2: drug loaded in LMC-2, TGA; for Loading percent in PMC: drug loaded in PMC, TGA", "description": "(§1) The loaded mesoporous carbons were dried, the external surface cleaned, and then placed into 130 cm^3 of simulated gastric fluid without pepsin (SGF; 0.2% w/v NaCl, aqueous HCl, pH adjusted to ˜1.5) or into simulated intestinal fluid (SIF) at ambient temperature for 30-50 hours under mild stirring (˜60 rpm) for in-vitro drug release. The drug concentrations were measured by UV-Vis spectroscopy utilizing a calibration curve on absorbance at various concentrations of the drug in SGF or SIF medium.\nThe drug loading amount in PMC and LMC-2 were measured with the help of thermogravimetric analysis (TGA). Pure mesoporous carbons, pure drugs, and drug-loaded carbons were heated under an inert atmosphere (N2) up to 1000° C., wherein the drug loading amount was calculated by comparing the relative amount of residues."}, "[2]": {"details": "cited from earlier work"}, "[3]": {"assay": "In-vitro drug release from loaded mesoporous carbon in SGF or SIF (UV-Vis), with kinetic and diffusivity analysis", "format": "physicochemical", "description": "as §1\nIn order to further investigate the diffusivity of the loaded drugs in the releasing media, Fick's laws of diffusion in spherical and cylindrical coordinates were utilized. Based on the assumption that drug-loaded mesoporous carbons are monolithic systems, the release profile in the spherical system can be mathematically expressed as (J. Siepmann, F. Siepmann, J., Controlled Release, 161 (2012) 351-362.):\nversus t will yield the diffusivity values for both types of systems. […] As the centers of micelles are believed to give rise to the mesopores, and because the micelles are approximately spherical in shape, a distorted spherical to cylindrical entity could serve as the closest approximation of the pore geometry. Based on these assumptions, diffusivity values have been calculated from all the release patterns for both spherical and cylindrical systems.\nversus t which also yields the diffusivity values of antipyrine from LMC-2 and PMC at three temperatures of 25° C., 35.5° C., and 50° C. Because of the surfactant templating, it was assumed that the mesopore geometries have a spherical to cylindrical shape, which became a basis for calculating the diffusivity values from each of the patterns in both cylindrical and spherical systems.\nIn order to provide further insight on the temperature dependence of diffusivity, calculations were made using the Eyring equation by assuming antipyrine diffusion from the pores of the carbons is an activation process,\nwhere Eα is the activation energy."}, "[4]": {"assay": "N2 adsorption-desorption on drug-loaded mesoporous carbons (pore filling)", "format": "physicochemical", "description": "In order to further investigate the occupancy of pore space by drug molecules, N2 adsorption-desorption experiments were performed on the drug-loaded mesoporous carbons, and the pore size distribution was calculated by the NLDFT method."}, "[5]": {"details": "from LMC-1, SGF, within around 60% of total drug release"}}, "data": [{"smiles": "Cc1cc(=O)n(-c2ccccc2)n1C", "note": "[Antipyrine]", "values": [{"measurement": "Loading percent in LMC-2", "setting": "[1]", "value": 12, "unit": "%"}, {"measurement": "Loading percent in PMC", "setting": "[1]", "value": 22, "unit": "%"}, {"measurement": "completion of release", "setting": "[2]; from porous silica", "value": 300, "unit": "min"}]}, {"smiles": "C[C@H](CS)C(=O)N1CCC[C@H]1C(=O)O", "note": "[Captopril]", "values": [{"measurement": "Loading percent in LMC-2", "setting": "[1]", "value": 5, "unit": "%"}, {"measurement": "Loading percent in PMC", "setting": "[1]", "value": 13, "unit": "%"}, {"measurement": "Diffusivity, Cylindrical", "setting": "[3]; LMC/SGF", "value": "2 × 10^−22 m^2/s"}, {"measurement": "Diffusivity, Spherical", "setting": "[3]; LMC/SGF", "value": "9 × 10^−23 m^2/s"}, {"measurement": "Diffusivity, Cylindrical", "setting": "[3]; PMC/SGF", "value": "2 × 10^−23 m^2/s"}, {"measurement": "Diffusivity, Spherical", "setting": "[3]; PMC/SGF", "value": "7 × 10^−24 m^2/s"}, {"measurement": "time to complete release", "setting": "[3]; from LMC, SGF", "value": "< 20", "unit": "h"}, {"measurement": "order of release (Korsmeyer-Peppas equation)", "setting": "[3]; [5]", "value": 0.42}, {"measurement": "release rate constant (Korsmeyer-Peppas equation)", "setting": "[3]; [5]", "value": 3.9}, {"measurement": "time to complete release", "setting": "[3]; from PMC, SGF", "value": "~40", "unit": "h"}, {"measurement": "pore filling by drug", "setting": "[4]; PMC", "value": "highest pore filling"}]}, {"smiles": "NS(=O)(=O)c1cc(C(=O)O)c(NCc2ccco2)cc1Cl", "note": "[Furosemide]", "values": [{"measurement": "Loading percent in LMC-2", "setting": "[1]", "value": 6.6, "unit": "%"}, {"measurement": "Loading percent in PMC", "setting": "[1]", "value": 6.7, "unit": "%"}, {"measurement": "Diffusivity, Cylindrical", "setting": "[3]; LMC/SGF", "value": "6 × 10^−22 m^2/s"}, {"measurement": "Diffusivity, Spherical", "setting": "[3]; LMC/SGF", "value": "4 × 10^−22 m^2/s"}, {"measurement": "Diffusivity, Cylindrical", "setting": "[3]; PMC/SGF", "value": "7 × 10^−23 m^2/s"}, {"measurement": "Diffusivity, Spherical", "setting": "[3]; PMC/SGF", "value": "4 × 10^−23 m^2/s"}, {"measurement": "Diffusivity, Cylindrical", "setting": "[3]; PMC/SIF", "value": "2 × 10^−23 m^2/s"}, {"measurement": "Diffusivity, Spherical", "setting": "[3]; PMC/SIF", "value": "1 × 10^−23 m^2/s"}, {"measurement": "initial burst, drug released within 1.5 hours", "setting": "[3]; SGF", "value": 60, "unit": "%"}, {"measurement": "time to complete release", "setting": "[3]; from LMC, SGF", "value": "less than 10 hours"}, {"measurement": "time to complete release", "setting": "[3]; from PMC, SGF", "value": "30 to 40", "unit": "h"}, {"measurement": "time to complete release", "setting": "[3]; from PMC, SIF (pH ~6.8)", "value": "30 to 40", "unit": "h"}, {"measurement": "order of magnitude of diffusivity", "setting": "[3]; release from LMC", "value": "10^−22 m^2/s"}, {"measurement": "order of magnitude of diffusivity", "setting": "[3]; release from PMC in both SGF and SIF", "value": "10^−23 m^2/s"}, {"measurement": "pore filling by drug", "setting": "[4]; both types of carbons (PMC, LMC-2)", "value": "minimum pore filling"}, {"measurement": "release completed", "setting": "[2]; from mesoporous silica nanoparticles, pH range 5.5 to 7.4", "value": "less than 100 minutes"}]}]}
